Laboratory results reported in patent US20220241296A1, “PROCESS FOR THE PREPARATION OF STERILE OPHTHALMIC AQUEOUS FLUTICASONE PROPIONATE FORM A NANOCRYSTALS SUSPENSIONS” (NICOX OPHTHALMICS, INC., priority 2019, published 2022).
Several values for one entry are separate records, joined by “and”; a condition that tells them apart may be missing. Equal entries are not always repeated. Each block holds one compound with its values, some of them ahead of it.

Assays:
[1] = 14-day repeated dose toxicokinetic study, topical application to eyelid margin; parameters: species or system Beagle dogs; settings: dog, in vivo; for Cmax / Tmax / AUC(0-t) / AUC0-24 h: Beagle, topical or ocular; for AUC(0-t): AUC0-24 h
Source text: The purpose of this study was to evaluate the toxicokinetic of fluticasone propionate Form A nanosuspensions of the invention (see Table 10 below) administered via topical application directly to the rim (margin) of upper and lower eyelids of both eyes of Beagle dogs.
Fifty naïve Beagle dogs (25 males and 25 females), approximately 5-6 months old and weighing 5.7 to 8.8 kg for males and females at the outset of the study were assigned to treatment groups (groups 1-4) and to vehicle group.
Male and female Beagle dogs were dosed with fluticasone propionate at 1.6, 9.6, and 32 μg/day (bilateral QD topical application) or at 64 μg/day (bilateral BID topical application) via eye lid applicator directly to the upper and lower eyelids of both eyes once or twice daily (minimum of 6 hours between doses) for 14 consecutive days.
Blood for toxicokinetic evaluation was collected from all animals at selected time points on Days 1 and 14.
Ophthalmology examinations were performed prior to treatment initiation, during the first and second weeks of dosing and during the last week of recovery. Eyes were scored once daily according to the modified Draize scale.
The reversibility of the effects of Fluticasone Propionate nanosuspension was assessed with a 14-day recovery period.

[2] = In vitro dissolution test (compartment diffusion through dialysis membrane, sink condition); type: physicochemical
Protocol: The dissolution rate of the Fluticasone propionate form A nanocrystals of the nanosuspension of the invention was assessed and compared to the dissolution rate of a standard Fluticasone propionate form 1 micronized material (reference sample). Dissolution profiles of nanocrystals of Fluticasone propionate form A of two nanosuspensions of the invention and of Fluticasone propionate form 1 micronized were performed using a dissolution method. The study was performed using a compartment diffusion analysis through a dialysis membrane and sink condition. The sink condition was achieved through the use of a receptor fluid containing 30 mM phosphate buffer, pH 7.4 with 5% HPβCD cyclodextrins and also by a complete replacement of the buffer every 24 hours to stay below the saturation point. The saturation point was estimated to be 5 μg/g under those experimental conditions and the measurements performed as well as the buffer replacement have shown a maximum concentration of 1.5 μg/g. The study was conducted at a temperature of 37° C. The details of the dissolution test method are provided below: A 5-fold dilution with the formulation vehicle (placebo solution containing all the formulation excipients including the surfactants) of two 0.1% w/w Fluticasone propionate form A nanosuspensions was conducted to obtain a final concentration of 0.02% w/w Fluticasone propionate inside the dialysis device. Fluticasone propionate form 1 micronized was suspended in the same phosphate buffer used in the receiving compartment of the dialysis system. Fluticasone propionate release was carried at 1-2 RPM. […] These aliquots were immediately centrifuged and the measurements were performed by HPLC

[3] = Particle size distribution by laser diffraction (Horiba LA-950) during preparation; type: physicochemical; settings: for particle size (D50—median): materials used in the dissolution test
Protocol: The particle size of the isolated nanocrystals was evaluated using a laser scattering Particle size distribution analyzer (Horiba LA-950).
4000 g of vehicle 1 were introduced into a 10 L process vessel containing a stir bar, by filtration through a PES 0.2 μm media and were set aside for further use. In a 2 L beaker, 15.04 g of the fluticasone propionate Form A nanocrystals were introduced together with some vehicle 1. […] This concentrated slurry was subject to high-shear, high-speed mixing at 6000±10 RPM for 10 minutes and the particle size distribution was tested by laser diffraction on a Horiba LA-950S2 PSD analyzer.
The 1% w/w fluticasone propionate Form A nanocrystals slurry was subject to high-shear, high-speed mixing at 6000±10 RPM for 10 minutes and the particle size distribution was tested by laser diffraction using a Horiba LA-95052 PSD analyzer.
The particle size distribution was tested by laser diffraction using a Horiba LA-950S2 PSD analyzer.

[4] = particle size at preparation, Horiba LA-950
[5] = time point 3 h, 37° C., listed as Fluticasone propionate form A nanocrystals
[6] = time point 5 h, 37° C., listed as Fluticasone propionate form A nanocrystals
[7] = time point 19 h, 37° C., listed as Fluticasone propionate form A nanocrystals
[8] = time point 24 h, 37° C., listed as Fluticasone propionate form A nanocrystals
[9] = time point 48 h, 37° C., listed as Fluticasone propionate form A nanocrystals
[10] = time point 72 h, 37° C., listed as Fluticasone propionate form A nanocrystals

saturation point ([2]; receptor fluid: 30 mM phosphate buffer, pH 7.4 with 5% HPβCD, 37° C.): ~5 µg/g
SMILES: CCC(=O)O[C@]1(C(=O)SCF)[C@H](C)C[C@H]2[C@@H]3C[C@H](F)C4=CC(=O)C=C[C@]4(C)[C@@]3(F)[C@@H](O)C[C@@]21C [Fluticasone Propionate, fluticasone propionate]
Cmax ([1]; both sexes, 1.6 ug/day, Cmax): 0.0281 ± 0.0266 ng/mL
Tmax ([1]; both sexes, 1.6 ug/day, Tmax): 45 min
AUC(0-t) ([1]; both sexes, 9.6 ug/day): 0.191 ± 0.335 ng·h/mL
Cmax ([1]; both sexes, 9.6 ug/day, Cmax): 0.0608 ± 0.0487 ng/mL
Tmax ([1]; both sexes, 9.6 ug/day, Tmax): 30 min
AUC(0-t) ([1]; both sexes, 32 ug/day): 0.481 ± 0.361 ng·h/mL
Cmax ([1]; both sexes, 32 ug/day, Cmax): 0.13 ± 0.155 ng/mL
Tmax ([1]; both sexes, 32 ug/day, Tmax): 30 min
AUC(0-t) ([1]; both sexes, 64 ug/day): 0.914 ± 0.413 ng·h/mL
Cmax ([1]; both, 1.6 ug/day): 0.0324 ± 0.0264 ng/mL
Tmax ([1]; both, 1.6 ug/day): 30 min
AUC0-24 h ([1]; both, 9.6 ug/day): 0.101 ± 0.102 ng·h/mL
Cmax ([1]; both, 9.6 ug/day): 0.0798 ± 0.07 ng/mL
Tmax ([1]; both, 9.6 ug/day): 30 min
AUC0-24 h ([1]; both, 32 ug/day): 0.482 ± 0.407 ng·h/mL
Cmax ([1]; both, 32 ug/day): 0.25 ± 0.219 ng/mL
Tmax ([1]; both, 32 ug/day): 30 min
AUC0-24 h ([1]; both, 64 ug/day): 0.76 ± 0.188 ng·h/mL
exposure versus dose [1]: dose-dependent
gender-related differences in exposure [1]: no discernable gender-related differences in exposure

particle size (D50—median) ([3]; listed as Fluticasone propionate form 1 micronized material): 4.64 μm
particle size (D50—median) ([3]; listed as micronized Fluticasone propionate form 1): 4.64 μm
% Dissolution Average % ([2]; time point 3 h, 37° C.): 0.7%
% Dissolution Tube #1 ([2]; time point 3 h, 37° C.): 0.8%
% Dissolution Tube #2 ([2]; time point 3 h, 37° C.): 0.5%
% Dissolution Tube #3 ([2]; time point 3 h, 37° C.): 0.9%
% Dissolution Average % ([2]; time point 5 h, 37° C.): 2.6%
% Dissolution Tube #1 ([2]; time point 5 h, 37° C.): 2.9%
% Dissolution Tube #2 ([2]; time point 5 h, 37° C.): 1.9%
% Dissolution Tube #3 ([2]; time point 5 h, 37° C.): 3.0%
% Dissolution Average % ([2]; time point 19 h, 37° C.): 19.4%
% Dissolution Tube #1 ([2]; time point 19 h, 37° C.): 20.9%
% Dissolution Tube #2 ([2]; time point 19 h, 37° C.): 17.1%
% Dissolution Tube #3 ([2]; time point 19 h, 37° C.): 20.3%
% Dissolution Average % ([2]; time point 24 h, 37° C.): 22.6%
% Dissolution Tube #1 ([2]; time point 24 h, 37° C.): 24.2%
% Dissolution Tube #2 ([2]; time point 24 h, 37° C.): 20.2%
% Dissolution Tube #3 ([2]; time point 24 h, 37° C.): 23.5%
% Dissolution Average % ([2]; time point 48 h, 37° C.): 48.6%
% Dissolution Tube #1 ([2]; time point 48 h, 37° C.): 51.1%
% Dissolution Tube #2 ([2]; time point 48 h, 37° C.): 44.0%
% Dissolution Tube #3 ([2]; time point 48 h, 37° C.): 50.6%
% Dissolution Average % ([2]; time point 72 h, 37° C.): 73.4%
% Dissolution Tube #1 ([2]; time point 72 h, 37° C.): 77.4%
% Dissolution Tube #2 ([2]; time point 72 h, 37° C.): 66.7%
% Dissolution Tube #3 ([2]; time point 72 h, 37° C.): 76.2%
SMILES: CCC(=O)O[C@]1(C(=O)SCF)[C@H](C)C[C@H]2[C@@H]3C[C@H](F)C4=CC(=O)C=C[C@]4(C)[C@@]3(F)[C@@H](O)C[C@@]21C [Micronized Fluticasone propionate form 1, fluticasone propionate]

particle size (D50—median) [3]: 0.434 μm
D50 [3, 4]: 0.2153 μm
D90 [3, 4]: 0.6073 μm
dissolution profile compared with Fluticasone propionate form 1 micronized material ([2]; despite different particle size): similar
% Dissolution Average % ([2]; time point 1 h, 37° C.): 0.0%
% Dissolution Tube #1 ([2]; time point 1 h, 37° C.): 0.0%
% Dissolution Tube #2 ([2]; time point 1 h, 37° C.): 0.0%
% Dissolution Tube #3 ([2]; time point 1 h, 37° C.): 0.0%
% Dissolution Average % [2, 5]: 0.8% and 0.7%
% Dissolution Tube #1 [2, 5]: 0.2% and 0.6%
% Dissolution Tube #2 [2, 5]: 1.4% and 0.5%
% Dissolution Tube #3 [2, 5]: 0.7% and 0.8%
% Dissolution Average % [2, 6]: 2.2% and 2.3%
% Dissolution Tube #1 [2, 6]: 1.3% and 2.4%
% Dissolution Tube #2 [2, 6]: 2.8% and 2.0%
% Dissolution Tube #3 [2, 6]: 2.4% and 2.6%
% Dissolution Average % [2, 7]: 17.8% and 19.0%
% Dissolution Tube #1 [2, 7]: 14.5% and 19.0%
% Dissolution Tube #2 [2, 7]: 20.4% and 18.2%
% Dissolution Tube #3 [2, 7]: 18.7% and 19.7%
% Dissolution Average % [2, 8]: 21.3% and 22.4%
% Dissolution Tube #1 [2, 8]: 17.5% and 22.4%
% Dissolution Tube #2 [2, 8]: 24.0% and 21.5%
% Dissolution Tube #3 [2, 8]: 22.4% and 23.2%
% Dissolution Average % [2, 9]: 46.2% and 48.5%
% Dissolution Tube #1 [2, 9]: 38.7% and 49.1%
% Dissolution Tube #2 [2, 9]: 51.4% and 45.6%
% Dissolution Tube #3 [2, 9]: 48.6% and 50.9%
% Dissolution Average % [2, 10]: 70.5% and 73.9%
% Dissolution Tube #1 [2, 10]: 59.6% and 75.1%
% Dissolution Tube #2 [2, 10]: 78.1% and 69.1%
% Dissolution Tube #3 [2, 10]: 74.0% and 77.7%
SMILES: CCC(=O)O[C@]1(C(=O)SCF)[C@H](C)C[C@H]2[C@@H]3C[C@H](F)C4=CC(=O)C=C[C@]4(C)[C@@]3(F)[C@@H](O)C[C@@]21C [fluticasone propionate]
